What was measured:
surinam grass = test: Test B pre/postemergence surinam grass; format: in vivo, Brachiaria decumbens
In short: (§1)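 Herbicidal effect was estimated by eye on a ten-point control scale after plants spent twelve to sixteen days in a greenhouse following soil or foliar treatment. Foliar sprays targeted plants at one to four leaves; all doses were formulated in a non-phytotoxic solvent with surfactant.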

cocklebur = test: Test B pre/postemergence cocklebur; format: in vivo, Xanthium strumarium
In short: as §1

corn = test: Test B pre/postemergence corn; format: in vivo, Zea mays
In short: as §1

crabgrass = test: Test B pre/postemergence crabgrass; format: in vivo, Digitaria sanguinalis
In short: as §1

giant foxtail = test: Test B pre/postemergence giant foxtail; format: in vivo, Setaria faberii
In short: as §1

morningglory = test: Test B pre/postemergence morningglory; format: in vivo, Ipomoea hederacea
In short: as §1

pigweed = test: Test B pre/postemergence pigweed; format: in vivo, Amaranthus retroflexus
In short: as §1

rape = test: Test B pre/postemergence rape; format: in vivo, Brassica napus
In short: as §1

soybean = test: Test B pre/postemergence soybean; format: in vivo, Glycine max
In short: as §1

sugar beet = test: Test B pre/postemergence sugar beet; format: in vivo, Beta vulgaris
In short: as §1

wild oat = test: Test B pre/postemergence wild oat; format: in vivo, Avena fatua
In short: as §1

purple nutsedge = test: Test B pre/postemergence purple nutsedge; format: in vivo, Cyperus rotundus
In short: as §1

rice = test: Test B flood test rice; format: in vivo, Oryza sativa
In short: (§2)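 Each value is a visual injury score relative to controls, with 10 meaning complete control and 0 no effect. Evaluation took place twelve to sixteen days after the 2-leaf-stage plants were treated and kept in the greenhouse.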

smallflower flatsedge = test: Test B flood test smallflower flatsedge; format: in vivo, Cyperus difformis
In short: as §2

duck salad = test: Test B flood test duck salad; format: in vivo, Heteranthera limosa
In short: as §2

bamyardgrass = test: Test B flood test barnyardgrass; format: in vivo, Echinochloa crus-galli
In short: as §2

[1] = Postemergence, Rate 125 g/ha, scale of 0 to 10 where 0 is no effect and 10 is complete control
[2] = Postemergence, Rate 250 g/ha, scale of 0 to 10, 0 is no effect, 10 is complete control
[3] = Postemergence, Rate 1000 g/ha, scale 0 to 10 (0 no effect, 10 complete control)
[4] = Preemergence, Rate 125 g/ha, scale of 0 to 10 where 0 is no effect and 10 is complete control
[5] = Preemergence, Rate 250 g/ha, scale 0 to 10 (0 no effect, 10 complete control)
[6] = Preemergence, Rate 500 g/ha, scale of 0 to 10 where 0 is no effect and 10 is complete control
[7] = Rate 500 g/ha, Postemergence, scale 0 to 10, 0 is no effect, 10 is complete control
[8] = Rate 1000 g/ha, Preemergence, scale 0 to 10 (0 no effect, 10 complete control)
[9] = Pre-emergence, Rate 1000 g/ha, scale 0 to 10 (0 no effect, 10 complete control)
[10] = Rate 125 g/ha, under heading Pre-emergence, flood test species, visual evaluation after twelve to sixteen days
[11] = Rate 250 g/ha, Pre-emergence (flood test species), scale 0 to 10, 0 is no effect, 10 is complete control
[12] = Rate 500 g/ha, Pre-emergence section of Table B, 0 to 10 scale (0 no effect, 10 complete control)

COP(=O)(CCn1c(=O)on(C(=O)N(c2ccc(F)cc2)C(C)C)c1=O)OC [Compound 662]
Plant response rating, B. signalgrass (surinam grass; [1]): 0
B. signalgrass plant response rating (surinam grass; [2]): 0
B. signalgrass plant response rating (surinam grass; [3]): 2
B. signalgrass plant response rating (surinam grass; [4]): 0
Plant response rating, B. signalgrass (surinam grass; [5]): 3
Plant response rating, B. signalgrass (surinam grass; [6]): 7
B. signalgrass plant response rating (surinam grass; [7]): 2
Plant response rating, B. signalgrass (surinam grass; [8]): 9
Cocklebur plant response rating (cocklebur; [1]): 0
Cocklebur plant response rating (cocklebur; [2]): 0
Cocklebur plant response rating (cocklebur; [3]): 5
Cocklebur plant response rating (cocklebur; [4]): 0
Plant response rating, Cocklebur (cocklebur; [5]): 0
Plant response rating, Cocklebur (cocklebur; [6]): 2
Cocklebur plant response rating (cocklebur; [7]): 0
Plant response rating, Cocklebur (cocklebur; [8]): 9
Corn plant response rating (corn; [1]): 0
Corn plant response rating (corn; [2]): 0
Corn plant response rating (corn; [3]): 1
Corn plant response rating (corn; [4]): 0
Plant response rating, Corn (corn; [5]): 0
Plant response rating, Corn (corn; [6]): 3
Corn plant response rating (corn; [7]): 0
Plant response rating, Corn (corn; [8]): 5
Crabgrass plant response rating (crabgrass; [1]): 0
Crabgrass plant response rating (crabgrass; [2]): 0
Crabgrass plant response rating (crabgrass; [3]): 8
Crabgrass plant response rating (crabgrass; [4]): 0
Plant response rating, Crabgrass (crabgrass; [5]): 4
Plant response rating, Crabgrass (crabgrass; [6]): 6
Crabgrass plant response rating (crabgrass; [7]): 2
Plant response rating, Crabgrass (crabgrass; [8]): 9
Giant foxtail plant response rating (giant foxtail; [1]): 0
Giant foxtail plant response rating (giant foxtail; [2]): 2
Giant foxtail plant response rating (giant foxtail; [3]): 8
Giant foxtail plant response rating (giant foxtail; [4]): 7
Plant response rating, Giant foxtail (giant foxtail; [5]): 9
Plant response rating, Giant foxtail (giant foxtail; [6]): 10
Giant foxtail plant response rating (giant foxtail; [7]): 5
Plant response rating, Giant foxtail (giant foxtail; [8]): 10
Morningglory plant response rating (morningglory; [1]): 7
Morningglory plant response rating (morningglory; [2]): 9
Morningglory plant response rating (morningglory; [3]): 7
Morningglory plant response rating (morningglory; [4]): 0
Plant response rating, Morningglory (morningglory; [5]): 0
Plant response rating, Morningglory (morningglory; [6]): 1
Morningglory plant response rating (morningglory; [7]): 7
Plant response rating, Morningglory (morningglory; [8]): 3
Redroot pigweed plant response rating (pigweed; [1]): 0
Redroot pigweed plant response rating (pigweed; [3]): 0
Redroot pigweed plant response rating (pigweed; [4]): 0
Plant response rating, Redroot pigweed (pigweed; [5]): 3
Plant response rating, Redroot pigweed (pigweed; [6]): 7
Redroot pigweed plant response rating (pigweed; [7]): 0
Plant response rating, Redroot pigweed (pigweed; [8]): 7
Rape plant response rating (rape; [1]): 0
Rape plant response rating (rape; [3]): 0
Rape plant response rating (rape; [4]): 0
Plant response rating, Rape (rape; [5]): 0
Plant response rating, Rape (rape; [6]): 0
Rape plant response rating (rape; [7]): 0
Plant response rating, Rape (rape; [8]): 4
Soybean plant response rating (soybean; [1]): 1
Soybean plant response rating (soybean; [4]): 0
Plant response rating, Soybean (soybean; [5]): 0
Plant response rating, Soybean (soybean; [6]): 0
Soybean plant response rating (soybean; [7]): 2
Plant response rating, Soybean (soybean; [8]): 3
Sugarbeets plant response rating (sugar beet; [1]): 0
Sugarbeets plant response rating (sugar beet; [3]): 0
Sugarbeets plant response rating (sugar beet; [4]): 0
Plant response rating, Sugarbeets (sugar beet; [5]): 0
Plant response rating, Sugarbeets (sugar beet; [6]): 0
Sugarbeets plant response rating (sugar beet; [7]): 0
Plant response rating, Sugarbeets (sugar beet; [8]): 0
Wild oats plant response rating (wild oat; [1]): 1
Wild oats plant response rating (wild oat; [3]): 1
Wild oats plant response rating (wild oat; [4]): 0
Plant response rating, Wild oats (wild oat; [5]): 0
Plant response rating, Wild oats (wild oat; [6]): 9
Wild oats plant response rating (wild oat; [7]): 1
Plant response rating, Wild oats (wild oat; [8]): 9
Nutsedge plant response rating (purple nutsedge; [1]): 0
Nutsedge plant response rating (purple nutsedge; [4]): 0
Plant response rating, Nutsedge (purple nutsedge; [5]): 4
Plant response rating, Nutsedge (purple nutsedge; [6]): 7
Nutsedge plant response rating (purple nutsedge; [7]): 5
Plant response rating, Nutsedge (purple nutsedge; [8]): 10
Rice plant response rating (rice; [9]): 0
Rice plant response rating (0 to 10 scale, 0 is no effect, 10 is complete control) (rice; [10]): 0
Rice plant response rating (rice; [11]): 0
Rice plant response rating (rice; [12]): 0
S. Flatsedge plant response rating (smallflower flatsedge; [9]): 0
S. Flatsedge plant response rating (0 to 10 scale, 0 is no effect, 10 is complete control) (smallflower flatsedge; [10]): 0
S. Flatsedge plant response rating (smallflower flatsedge; [11]): 0
S. Flatsedge plant response rating (smallflower flatsedge; [12]): 0
Ducksalad plant response rating (duck salad; [9]): 0
Ducksalad plant response rating (0 to 10 scale, 0 is no effect, 10 is complete control) (duck salad; [10]): 0
Ducksalad plant response rating (duck salad; [11]): 0
Ducksalad plant response rating (duck salad; [12]): 0
Barnyardgrass plant response rating (bamyardgrass; [9]): 0
Barnyardgrass plant response rating (0 to 10 scale, 0 is no effect, 10 is complete control) (bamyardgrass; [10]): 0
Barnyardgrass plant response rating (bamyardgrass; [11]): 0
Barnyardgrass plant response rating (bamyardgrass; [12]): 0

Reference: US6737383B1, “Herbicidal oxadiazolidines” (priority 1999, dated 2004)
